From patent publication US8680062B2, “System for delivering therapeutic agents into living cells and cells nuclei” (Deliversir Ltd., priority 2004, dated 2014)

Tests used:
DNA polymerase I = DNA polymerase I (Escherichia coli, UniProt P00582); details: 90 minute time point; 5.4 Kb plasmid, 15° C., 3H-dGTP counting
Experimental: At each time point of interest, 2 μl from the reaction mixture were withdrawn, spotted on glass fiber filters (GF/C), washed once with 10% trichloroacetic acid (TCA) and twice with 5% TCA, and with alcohol and was thereafter dried. The filters were loaded to a liquid scintillation counter for measurements of the progression of the polymerase reaction and the relative level of incorporation.

rTh polymerase = target: T1, rTh polymerase (Thermus thermophilus, UniProt P52028); test: PCR polymerase assay of modified nucleotide as substrate in place of dTTP; format: biochemical; details: typical PCR conditions, Taq, Vent, Pfu and rTh polymerases tested
T1 construct: purchased
T1 sequence (P52028 whole entry): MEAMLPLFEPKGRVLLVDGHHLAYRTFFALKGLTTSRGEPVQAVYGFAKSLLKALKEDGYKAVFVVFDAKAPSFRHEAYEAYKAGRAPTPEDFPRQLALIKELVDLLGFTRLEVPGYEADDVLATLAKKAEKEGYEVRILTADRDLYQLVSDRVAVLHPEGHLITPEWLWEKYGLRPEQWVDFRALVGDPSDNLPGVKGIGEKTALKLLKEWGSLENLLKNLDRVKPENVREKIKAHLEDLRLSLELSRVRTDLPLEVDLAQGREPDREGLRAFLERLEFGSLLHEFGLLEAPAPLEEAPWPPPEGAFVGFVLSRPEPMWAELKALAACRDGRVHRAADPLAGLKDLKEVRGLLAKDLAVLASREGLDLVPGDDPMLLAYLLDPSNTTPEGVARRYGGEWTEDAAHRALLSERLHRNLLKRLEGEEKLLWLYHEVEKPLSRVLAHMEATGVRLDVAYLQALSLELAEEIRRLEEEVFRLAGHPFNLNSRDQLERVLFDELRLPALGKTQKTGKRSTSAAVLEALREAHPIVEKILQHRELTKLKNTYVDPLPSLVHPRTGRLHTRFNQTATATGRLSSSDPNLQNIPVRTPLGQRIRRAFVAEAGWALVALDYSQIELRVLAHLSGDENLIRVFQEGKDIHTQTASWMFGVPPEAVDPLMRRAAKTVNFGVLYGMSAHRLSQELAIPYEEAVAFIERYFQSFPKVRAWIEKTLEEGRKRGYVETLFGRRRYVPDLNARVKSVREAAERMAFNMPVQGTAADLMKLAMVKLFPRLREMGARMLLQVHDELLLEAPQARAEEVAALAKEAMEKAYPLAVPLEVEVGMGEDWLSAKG
Source text: The modified nucleotides described above were tasted in polymerase assays to determine their compatibility as substrates for polymerase reactions. The modified nucleotide Compound 7 (modified dUTP), served as a substrate in place of deoxythymidinetriphosphate, dTTP, for thermostable DNA polymerases using typical PCR conditions. Commercially available thermostable DNA polymerases from […] were used in the assays: Taq from Thermus aquaticus, Vent from Thermococcus litoralis, Pfu from Pyrococcus furiosus, and rTh from Thennus thennophilus.

Sequence of DNA polymerase I (P00582 whole entry): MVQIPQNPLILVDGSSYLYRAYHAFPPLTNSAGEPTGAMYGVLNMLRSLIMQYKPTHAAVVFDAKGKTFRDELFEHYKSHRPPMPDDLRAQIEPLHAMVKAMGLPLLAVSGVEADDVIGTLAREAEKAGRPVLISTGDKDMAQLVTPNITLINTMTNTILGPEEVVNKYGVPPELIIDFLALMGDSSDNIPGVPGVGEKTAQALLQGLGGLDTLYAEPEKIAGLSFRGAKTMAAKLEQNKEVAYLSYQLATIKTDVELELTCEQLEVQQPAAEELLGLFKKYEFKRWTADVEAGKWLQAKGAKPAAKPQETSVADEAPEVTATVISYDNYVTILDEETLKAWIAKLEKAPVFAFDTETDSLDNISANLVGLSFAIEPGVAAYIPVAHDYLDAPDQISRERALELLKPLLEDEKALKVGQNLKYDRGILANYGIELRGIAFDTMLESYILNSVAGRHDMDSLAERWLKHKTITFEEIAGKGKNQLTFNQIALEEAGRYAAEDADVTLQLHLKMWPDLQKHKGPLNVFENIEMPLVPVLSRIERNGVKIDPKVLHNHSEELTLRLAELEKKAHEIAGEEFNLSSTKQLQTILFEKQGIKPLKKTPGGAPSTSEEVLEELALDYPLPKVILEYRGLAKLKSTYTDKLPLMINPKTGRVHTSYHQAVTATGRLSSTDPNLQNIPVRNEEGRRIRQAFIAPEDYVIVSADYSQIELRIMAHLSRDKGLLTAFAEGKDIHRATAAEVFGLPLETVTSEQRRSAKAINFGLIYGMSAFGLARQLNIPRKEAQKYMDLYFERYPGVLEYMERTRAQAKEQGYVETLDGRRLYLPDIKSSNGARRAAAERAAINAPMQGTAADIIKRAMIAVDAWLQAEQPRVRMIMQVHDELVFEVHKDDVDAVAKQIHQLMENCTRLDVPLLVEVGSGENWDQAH

urocanic acid modified dCTP [Compound 11]
relative levels of incorporation of the modified deoxynucleotides (DNA polymerase I): 44%

NC/C=C/c1cn(C2CC(O)C(COP(=O)(O)OP(=O)(O)OP(=O)(O)O)O2)c(=O)[nH]c1=O (stereo not shown) [Compound 7, 5′-triphosphate-5-(3-aminopropen-1-yl)deoxyuridine]
incorporation into PCR product as polymerase substrate (rTh polymerase): incorporation into a 561 base pair product only with rTh polymerase

urocanic acid modified dUTP [Compound 8]
relative levels of incorporation of the modified deoxynucleotides (DNA polymerase I): 54%

NCCCCCCNc1ncnc2c1ncn2[C@H]1C[C@H](O)[C@@H](COP(=O)(O)OP(=O)(O)OP(=O)(O)O)O1 [N^6-aminohexyl dATP, reference compound]
relative levels of incorporation of the modified deoxynucleotides (DNA polymerase I): 70%
